In patent US20240101602A1, “ANTIMICROBIAL PEPTIDES AND METHOD OF PREVENTING OR TREATING INFECTION BY USING THE SAME” (priority 2020, published 2024):
Converted amounts (≈) assume the structure as drawn. Where two headings read alike, the source gives them in different places. Residues, ends and D or L forms follow the SMILES beside them. *: point of attachment. Myristoyl = CCCCCCCCCCCCCC(=O)*

How the values were obtained:
[1] = tested on: Staphylococcus epidermidis ATCC 14990
[2] = tested on: Staphylococcus aureus BCRC 10777
[3] = tested on: Acinetobacter baumannii ATCC 17978
[4] = tested on: Xanthomonas campestris pv. campestris strain Xcc17; experiment: MIC and MBC by serial dilution in 96-well plate; type: cell-based; conditions: Xcc Xcc17; Table 7
Description: (§1) The effect of peptide length on the antimicrobial activity was investigated by deciding the minimal inhibitory concentration (MIC) and minimal bactericidal concentration (MBC) for each peptide against the pathogen with the media and growth conditions of phytopathogenic bacteria and E. coli as described in Table 1. Single bacterial colony grown on an optimal rich agar medium was picked, and each grew in 3 mL of the same rich liquid medium for 4 to 6 h.
(§2) For experiments carried out in the rich medium, the bacterial broth culture was then diluted in the same medium to give a final concentration of OD600=0.08, and then further diluted 100 folds in the same medium.
(§3) For experiments carried out in the minimal medium, the bacterial cells were collected from the bacterial liquid culture by centrifugation, re-suspended in an optimal minimal medium to give a final concentration of OD600=0.08, and then further diluted 100 folds in the same minimal medium.
(§4) Fifty microliters of serially diluted peptides (2-fold the final concentration) were added in a 96-well polystyrene plate with 50 μL of the bacterial culture. The final concentrations of peptides were 0, 2, 4, 8, 16 and 32 μg/mL. The plates were incubated at an optimal temperature without shaking.
(§5) MBC was determined as the lowest peptide concentration at which no colonies formed.

[5] = tested on: Xanthomonas euvesicatoria strain Xvt28; experiment: MIC and MBC by serial dilution in 96-well plate; type: cell-based; conditions: Xev Xvt28; Table 7
Description: as §1, §2, §3, §4, §5

[6] = tested on: Eco DH5α; experiment: MIC and MBC by serial dilution in 96-well plate; type: cell-based, Escherichia coli
Description: as §1, §2, §3, §4, §5

[7] = tested on: Xanthomonas oryzae pv. oryzae strain Xoo28; conditions: Xoo Xoo28; Table 7
[8] = tested on: Agrobacterium tumefaciens strain Atu C58C1
[9] = tested on: Botrytis cinerea; type: cell-based; conditions: Bc; optimal minimal medium, crude peptides (Table 9)
Description: (§6) The experiments were conducted in an optimal minimal medium for each pathogen. The media and growth conditions were described in Tables 2 and 3. MIC and MBC values were determined following the procedures described above. […] Fifty microliters of serially diluted peptides (2-fold the final concentration) were added in a 96-well polystyrene plate with 50 μL of the fungal spore suspension. […] The plates were incubated at an optimal temperature without shaking. […] MFC was determined as the lowest peptide concentration at which no fungal growth was observed.

[10] = tested on: Pseudomonas syringae pv. tomato strain DC3000
[11] = tested on: Erwinia chrysanthemi; type: cell-based
Description: (§7) The effect of peptide length on the antimicrobial activity was investigated by deciding the minimal inhibitory concentration (MIC) and minimal bactericidal concentration (MBC) for each peptide against the pathogen with the media and growth conditions of phytopathogenic bacteria and E. coli as described in Table 1. Single bacterial colony grown on an optimal rich agar medium was picked, and each grew in 3 mL of the same rich liquid medium for 4 to 6 h. For experiments carried out in the rich medium, the bacterial broth culture was then diluted in the same medium to give a final concentration of OD600=0.08, and then further diluted 100 folds in the same medium. For experiments carried out in the minimal medium, the bacterial cells were collected from the bacterial liquid culture by centrifugation, re-suspended in an optimal minimal medium to give a final concentration of OD600=0.08, and then further diluted 100 folds in the same minimal medium. Fifty microliters of serially diluted peptides (2-fold the final concentration) were added in a 96-well polystyrene plate with 50 μL of the bacterial culture. […] The plates were incubated at an optimal temperature without shaking. […] MBC was determined as the lowest peptide concentration at which no colonies formed. The experiments were conducted in an optimal minimal medium for each pathogen. The media and growth conditions were described in Tables 2 and 3. MIC and MBC values were determined following the procedures described above. […] Fifty microliters of serially diluted peptides (2-fold the final concentration) were added in a 96-well polystyrene plate with 50 μL of the fungal spore suspension.

[12] = tested on: Pectobacterium carotovorum subsp. carotovorum; type: cell-based
Description: as §7

[13] = tested on: Pseudomonas syringae pv. syringae strain B728a; conditions: Pss B728a; Table 7
[14] = tested on: bacteria, fungal spores, and fungal mycelia; type: cell-based; conditions: SYTOX Green, crude peptides, room temperature in dark for 2 h
[15] = tested on: Ralstonia solanacearum strain Pss4; conditions: Rs Pss4; optimal minimal medium, crude peptides (Table 9)
[16] = tested on: Ralstonia solanacearum strain Pss190; conditions: Rs Pss190; optimal minimal medium, crude peptides (Table 9)
[17] = tested on: Cgl FST02; type: cell-based, Colletotricum gloeosporioides; conditions: Cgl FST02; optimal minimal medium, crude peptides (Table 9)
Description: as §6

[18] = tested on: Klebsiella pneumonia NTUH-K2044
[19] = tested on: Agrobacterium tumefaciens strain Atu C58C1; conditions: rich medium, 24 h, purified peptides
[20] = tested on: Escherichia coli strain DH5a; conditions: 24 h
[21] = tested on: Xanthomonas campestris pv. campestris strain Xcc17; experiment: IC50 of bacterial growth (OD600) in rich liquid medium; type: cell-based; conditions: Xcc Xcc17, 24 h, purified peptides
Description: (§8) To measure the antimicrobial activity, single colony grown on an optimal rich agar medium for each bacterium was picked and grew in 3 mL of the same rich liquid medium for 4 to 6 h. The bacterial culture was then diluted in the same medium to give a final concentration of OD600=0.08 and then further diluted […] in the same medium. In each well of a 96-well polystyrene plate, 90 μL of the diluted culture was mixed with 10 μL of the peptide to give a peptide concentration of 0, 2, 10, and 20 μg/mL (final cell concentration is 5×10^5 CFU/mL). OD600 was measured after incubation at an optimal temperature for 24 h. IC50 was determined as the lowest peptide concentration inhibiting 50% of bacterial growth.

[22] = tested on: Xanthomonas euvesicatoria strain Xvt28; experiment: as above; type: cell-based; conditions: Xev Xvt28, 24 h, purified peptides
Description: as §8

[23] = tested on: Xanthomonas oryzae pv. oryzae strain Xoo28; conditions: Xoo Xoo28; rich medium, 24 h, purified peptides
[24] = tested on: Candida albicans SC5314; conditions: Candida albicans SC5314; 48 h at 35° C., 0.125 to 64 μg/mL (Table 5)
[25] = Circular dichroism spectroscopy, secondary structure deconvolution
[26] = Eco DH5α, rich medium, purified peptides

Molecule: CCCCCCCCCCCCCC(=O)N[C@@H](Cc1c[nH]c2ccccc12)C(=O)N[C@@H](CCCCN)C(=O)N[C@@H](CCCCN)C(=O)N[C@H](C(=O)N[C@@H](CCCCN)C(=O)N[C@@H](CCCCN)C(=O)N[C@@H](CC(C)C)C(=O)N[C@H](C(=O)N[C@@H](CCCCN)C(=O)N[C@@H](CCCCN)C(=O)N[C@@H](CC(C)C)C(N)=O)C(C)C)C(C)C [pepD3(V)M] (Myristoyl-WKKVKKLVKKL-NH2)
- MBC [1]: 16 µg/mL (≈ 9.95 µM)
- MIC [1]: 16 µg/mL (≈ 9.95 µM)
- MBC [2]: 16 µg/mL (≈ 9.95 µM)
- MIC [2]: 16 µg/mL (≈ 9.95 µM)
- MBC [3]: 16 µg/mL (≈ 9.95 µM)

Molecule: CCCCCCCCCCCCCC(=O)N[C@@H](Cc1c[nH]c2ccccc12)C(=O)N[C@@H](CCCCN)C(=O)N[C@@H](CCCCN)C(=O)N[C@H](C(=O)N[C@@H](CCCCN)C(=O)N[C@@H](CCCCN)C(=O)N[C@H](C(=O)N[C@H](C(=O)N[C@@H](CCCCN)C(=O)N[C@@H](CCCCN)C(=O)N[C@H](C(=O)N[C@@H](CCCCN)C(=O)N[C@@H](CCCCN)C(=O)N[C@H](C(N)=O)[C@@H](C)CC)[C@@H](C)CC)[C@@H](C)CC)[C@@H](C)CC)[C@@H](C)CC [pepI2M] (Myristoyl-WKKIKKIIKKIKKI-NH2)
- MBC [3]: 32 µg/mL (≈ 16 µM)

Molecule: CCCCCCCCCCCCCC(=O)N[C@@H](Cc1c[nH]c2ccccc12)C(=O)N[C@@H](CCCCN)C(=O)N[C@@H](CCCCN)C(=O)N[C@H](C(=O)N[C@@H](CCCCN)C(=O)N[C@@H](CCCCN)C(=O)N[C@H](C(=O)N[C@H](C(=O)N[C@@H](CCCCN)C(=O)N[C@@H](CCCCN)C(=O)N[C@H](C(=O)N[C@@H](CCCCN)C(=O)N[C@@H](CCCCN)C(=O)N[C@H](C(N)=O)C(C)C)C(C)C)C(C)C)C(C)C)C(C)C [pepV2M] (Myristoyl-WKKVKKVVKKVKKV-NH2)
- MBC [1]: 16 µg/mL (≈ 8.27 µM)
- MIC [1]: 16 µg/mL (≈ 8.27 µM)
- MBC [2]: 16 µg/mL (≈ 8.27 µM)
- MIC [2]: 8 µg/mL (≈ 4.14 µM)
- MBC [3]: 16 µg/mL (≈ 8.27 µM)

Molecule: Ac-WKKLKKLLKKLKKL-NH2 [pepD2]
- MBC [4]: 1.0 µg/mL
- MIC [4]: 1.0 µg/mL
- MBC [5]: 3.5 µg/mL
- MIC [5]: 3.0 µg/mL
- MBC ([6]; Table 7): 7.0 µg/mL
- MIC ([6]; Table 7): 4.3 µg/mL
- MBC ([6]; Table 13): 8.0 µg/mL
- MIC ([6]; Table 13): 8.0 µg/mL
- MBC [7]: 6.0 µg/mL
- MIC [7]: 5.0 µg/mL
- MBC [8]: 2.2 µg/mL
- MIC [8]: 1.6 µg/mL
- MBC/MFC [9]: — (“—” indicates no antimicrobial activity being detected at the highest peptide concentration (32 μg/mL) tested in this study.)
- MIC [9]: — (“—” indicates no antimicrobial activity being detected at the highest peptide concentration (32 μg/mL) tested in this study.)
- MBC [10]: 8.8 µg/mL
- MIC [10]: 4.8 µg/mL
- MBC [11]: 32.0 µg/mL
- MBC/MFC [11]: 21.3 µg/mL
- MBC [12]: 18.8 µg/mL
- MBC/MFC [12]: 8.0 µg/mL
- MBC ([12]; Pcc, Table 13): 6.7. μg/mL
- MBC [1]: 32 µg/mL
- MIC [1]: 16 µg/mL
- MBC [2]: 16 µg/mL
- MIC [2]: 16 µg/mL
- MBC [13]: 14.7 µg/mL
- MIC [13]: 6.0 µg/mL
- membranolytic effect on the cell walls of bacteria, fungal spores, and fungal mycelia [14]: significant membranolytic effect
- MBC/MFC [15]: — (“—” indicates no antimicrobial activity being detected at the highest peptide concentration (32 μg/mL) tested in this study.)
- MIC [15]: — (“—” indicates no antimicrobial activity being detected at the highest peptide concentration (32 μg/mL) tested in this study.)
- MBC/MFC [16]: — (“—” indicates no antimicrobial activity being detected at the highest peptide concentration (32 μg/mL) tested in this study.)
- MIC [16]: — (“—” indicates no antimicrobial activity being detected at the highest peptide concentration (32 μg/mL) tested in this study.)
- MBC/MFC [17]: — (“—” indicates no antimicrobial activity being detected at the highest peptide concentration (32 μg/mL) tested in this study.)
- MIC [17]: — (“—” indicates no antimicrobial activity being detected at the highest peptide concentration (32 μg/mL) tested in this study.)
- MBC [18]: 16 µg/mL
- MIC [18]: 16 µg/mL

Molecule: Ac-WKLKLKLKLKLKLKLKLK-NH2 [pepE]
- IC50 [19]: 20.0 µg/mL
- IC50 ([20]; DH5a): 10.0 µg/mL
- IC50 [21]: 4.0 µg/mL
- IC50 [22]: 2.0 µg/mL
- IC50 [23]: 7.3 µg/mL
- MIC [24]: — (“—” indicates no antimicrobial activity being detected at the highest peptide concentration (64 μg/mL) tested.)

Molecule: Ac-WKLLKKLLKKLKKLLKKL-NH2 [pepC]
- IC50 [19]: 12.5 µg/mL
- IC50 [20, 26]: 10.0 µg/mL
- IC50 [21]: 10.0 µg/mL
- IC50 [22]: 8.0 µg/mL
- IC50 [23]: 12.5 µg/mL
- MIC [24]: 32.0 µg/mL

Molecule: Ac-WKLLKKLLKLLKKLLKLL-NH2 [pepB]
- IC50 [19]: — (“—” indicates no antimicrobial activity being detected at the highest peptide concentration (20 μg/mL) tested in this study.)
- IC50 [20, 26]: — (“—” indicates no antimicrobial activity being detected at the highest peptide concentration (20 μg/mL) tested in this study.)
- IC50 [21]: — (“—” indicates no antimicrobial activity being detected at the highest peptide concentration (20 μg/mL) tested in this study.)
- IC50 [22]: 16.7 µg/mL
- IC50 [23]: — (“—” indicates no antimicrobial activity being detected at the highest peptide concentration (20 μg/mL) tested in this study.)
- MIC [24]: — (“—” indicates no antimicrobial activity being detected at the highest peptide concentration (64 μg/mL) tested.)
- α-helix formation ([25]; 10% TFE): 90%
- α-helix content ([25]; dissolved in water, structural deconvolution of CD spectra): about 25%
